The structures appear in SMILES notation. Some results are limits rather than exact numbers.

For 17 compounds, DC50 results are on record in patent publication US20240383886A1, “Protein Tyrosine Phosphatase Degraders and Methods of Use Thereof” (CALICO LIFE SCIENCES LLC, priority 2019, published 2024).

Experiment [1] relates to PTPN2. Briefly: HiBiT-Degradation B16F10.4 PTPN2. The settings on record: B16F10.4 cells, 24.0 hours. In kind it is cell-based. Background: With HiBiT, luminescence reflects the tagged protein that the partner subunit can reach.
Experiment [2] has as its target T1, PTPN2 (Homo sapiens, UniProt P17706).
T1 construct: expressed in transfected cells; host or cells: 293T (293T.109 HiBiT-PTPN2 line; parental 293T WT from ATCC)
T1 sequence (P17706 1-415): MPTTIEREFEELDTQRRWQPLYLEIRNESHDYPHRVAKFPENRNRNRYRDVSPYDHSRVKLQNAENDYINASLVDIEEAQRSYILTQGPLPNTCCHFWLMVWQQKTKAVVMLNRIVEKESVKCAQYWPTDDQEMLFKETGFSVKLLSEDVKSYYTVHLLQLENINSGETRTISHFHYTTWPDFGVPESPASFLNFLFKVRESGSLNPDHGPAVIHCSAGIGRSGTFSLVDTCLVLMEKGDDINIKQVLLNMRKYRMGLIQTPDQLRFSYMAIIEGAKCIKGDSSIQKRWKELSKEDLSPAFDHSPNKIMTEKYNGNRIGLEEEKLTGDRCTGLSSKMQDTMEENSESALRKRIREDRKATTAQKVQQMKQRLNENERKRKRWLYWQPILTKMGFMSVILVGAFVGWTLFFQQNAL
Briefly: HiBiT-Degradation 293T.109 PTPN2 (Nano-Glo HiBiT Lytic Assay). In kind it is cell-based. The note with it: 293T.109 (HiBiT-PTPN2) cells, 24.0 hours. The source says:
Dulbecco's modified Eagle medium (DMEM) without phenol red and fetal bovine serum (FBS) were purchased from Gibco (Grand Island, NY, USA). Nano-Glo® HiBIT Lytic Assay System was purchased from Promega (Madison, WI, USA). 293T.109 (HiBiT-PTPN2) cell line was generated by ectopically expressing PTPN2 with N-terminal HiBiT fusion tag in 293T WT cell line purchased from ATCC (Manassas, VA, USA). Cell culture flasks and 384-well microplates were acquired from VWR (Radnor, PA, USA).
PTPN2 degradation was determined based on quantification of luminescent signal using Nano-Glo® HiBIT Lytic Assay kit. Test compounds were added to the 384-well plate from a top concentration of 10 μM with 11 points, half log titration in duplicates. 293T.109 cells were added into 384-well plates at a cell density of 5000 cells per well. The plates were kept at 37° C. with 5% CO2 for 24 hours. The cells treated in the absence of the test compound were the negative control and the cells without Nano-Glo® HiBiT Lytic reagent were the positive control. After 24-hour incubation, Nano-Glo® HiBIT Lytic Assay reagents were added to the cells. Luminescence was acquired on EnVision™ Multilabel Reader (PerkinElmer, Santa Clara, CA, USA).

`O=C(C=Cc1ccc2cc(O)c(N3CC(=O)NS3(=O)=O)c(F)c2c1)NC1CCN(C(=O)COc2cccc3c2CN(C2CCC(=O)NC2=O)C3=O)CC1` (stereo not shown) [Example 11, 3-(7-(1,1-dioxido-4-oxo-1,2,5-thiadiazolidin-2-yl)-8-fluoro-6-hydroxynaphthalen-2-yl)-N-(1-(2-((2-(2,6-dioxopiperidin-3-yl)-1-oxoisoindolin-4-yl)oxy)acetyl)piperidin-4-yl)acrylamide]: the half-maximal degradation concentration (DC50) in experiment [1] and in experiment [2] was 200 to 1000 nM throughout.

Take `O=C1CCC(N2C(=O)c3cccc(NCc4cnn(CCC(=O)Nc5ccc6c(F)c(N7CC(=O)NS7(=O)=O)c(O)cc6c5)c4)c3C2=O)C(=O)N1` (stereo not shown) [Example 12, 3-[4-[[[2-(2,6-dioxo-3-piperidyl)-1,3-dioxo-isoindolin-4-yl]amino]methyl]pyrazol-1-yl]-N-[5-fluoro-7-hydroxy-6-(1,1,4-trioxo-1,2,5-thiadiazolidin-2-yl)-2-naphthyl]propanamide]: the DC50 in experiment [1] is no less than 1000 nM; in experiment [2], 200 to 1000 nM.

As for `O=C1CCC(N2Cc3c(NCc4cnn(CCC(=O)Nc5ccc6c(F)c(N7CC(=O)NS7(=O)=O)c(O)cc6c5)c4)cccc3C2=O)C(=O)N1` (stereo not shown) [Example 13, 3-[4-[[[2-(2,6-dioxo-3-piperidyl)-1-oxo-isoindolin-4-yl]amino]methyl]pyrazol-1-yl]-N-[5-fluoro-7-hydroxy-6-(1,1,4-trioxo-1,2,5-thiadiazolidin-2-yl)-2-naphthyl]propanamide], the figures for the DC50 in experiment [1] and in experiment [2] were 200 to 1000 nM and 50 to 200 nM, respectively.

`O=C1CCC(N2C(=O)c3ccc(NCc4cn(CCC(=O)Nc5ccc6c(F)c(N7CC(=O)NS7(=O)=O)c(O)cc6c5)nn4)cc3C2=O)C(=O)N1` (stereo not shown) [Example 14, N-(6-(1,1-dioxido-4-oxo-1,2,5-thiadiazolidin-2-yl)-5-fluoro-7-hydroxynaphthalen-2-yl)-3-(4-(((2-(2,6-dioxopiperidin-3-yl)-1,3-dioxoisoindolin-5-yl)amino)methyl)-1H-1,2,3-triazol-1-yl)propanamide]: the 50% degradation concentration (DC50) in experiment [1] and in experiment [2] was 200 to 1000 nM in each case.

Take `O=C1CCC(N2Cc3cc(NCc4cn(CCC(=O)Nc5ccc6c(F)c(N7CC(=O)NS7(=O)=O)c(O)cc6c5)nn4)ccc3C2=O)C(=O)N1` (stereo not shown) [Example 15, 3-[4-[[[2-(2,6-dioxo-3-piperidyl)-1-oxo-isoindolin-5-yl]amino]methyl]triazol-1-yl]-N-[5-fluoro-7-hydroxy-6-(1,1,4-trioxo-1,2,5-thiadiazolidin-2-yl)-2-naphthyl]propanamide]: the DC50 in experiment [1] and in experiment [2] was 200 to 1000 nM each time.

Take `O=C1CCC(N2Cc3cc(NCc4cnn(CCC(=O)Nc5ccc6c(F)c(N7CC(=O)NS7(=O)=O)c(O)cc6c5)c4)ccc3C2=O)C(=O)N1` (stereo not shown) [Example 16, 3-[4-[[[2-(2,6-dioxo-3-piperidyl)-1-oxo-isoindolin-5-yl]amino]methyl]pyrazol-1-yl]-N-[5-fluoro-7-hydroxy-6-(1,1,4-trioxo-1,2,5-thiadiazolidin-2-yl)-2-naphthyl]propanamide]: the DC50 was 200 to 1000 nM in experiment [1] and 50 to 200 nM in experiment [2].

As to `O=C1CCC(N2C(=O)c3cccc(NCc4cn(C5CN(C(=O)Nc6ccc7c(F)c(N8CC(=O)NS8(=O)=O)c(O)cc7c6)C5)nn4)c3C2=O)C(=O)N1` (stereo not shown) [Example 17, 3-[4-[[[2-(2,6-dioxo-3-piperidyl)-1,3-dioxo-isoindolin-4-yl]amino]methyl]triazol-1-yl]-N-[5-fluoro-7-hydroxy-6-(1,1,4-trioxo-1,2,5-thiadiazolidin-2-yl)-2-naphthyl]azetidine-1-carboxamide], the DC50 in experiment [1] is no less than 1000 nM; in experiment [2], 50 to 200 nM.

With `CC(C)(Nc1cccc2c1C(=O)N(C1CCC(=O)NC1=O)C2=O)c1cn(CCC(=O)Nc2ccc3c(F)c(N4CC(=O)NS4(=O)=O)c(O)cc3c2)nn1` (stereo not shown) [Example 18, N-(6-(1,1-dioxido-4-oxo-1,2,5-thiadiazolidin-2-yl)-5-fluoro-7-hydroxynaphthalen-2-yl)-3-(4-(2-((2-(2,6-dioxopiperidin-3-yl)-1,3-dioxoisoindolin-4-yl)amino)propan-2-yl)-1H-1,2,3-triazol-1-yl)propanamide], the DC50 was no less than 1000 nM in experiment [1] and 200 to 1000 nM in experiment [2].

Regarding `O=C1CCC(N2Cc3c(OCc4cn(CCC(=O)Nc5ccc6c(F)c(N7CC(=O)NS7(=O)=O)c(O)cc6c5)nn4)cccc3C2=O)C(=O)N1` (stereo not shown) [Example 19, N-(6-(1,1-dioxido-4-oxo-1,2,5-thiadiazolidin-2-yl)-5-fluoro-7-hydroxynaphthalen-2-yl)-3-(4-(((2-(2,6-dioxopiperidin-3-yl)-1-oxoisoindolin-4-yl)oxy)methyl)-1H-1,2,3-triazol-1-yl)propanamide], the values for the DC50 in experiment [1] and in experiment [2] were 200 to 1000 nM and 50 to 200 nM, respectively.

`O=C1CCC(N2Cc3cc(OCc4cn(CCC(=O)Nc5ccc6c(F)c(N7CC(=O)NS7(=O)=O)c(O)cc6c5)nn4)ccc3C2=O)C(=O)N1` (stereo not shown) [Example 20, 3-[4-[[2-(2,6-dioxo-3-piperidyl)-1-oxo-isoindolin-5-yl]oxymethyl]triazol-1-yl]-N-[5-fluoro-7-hydroxy-6-(1,1,4-trioxo-1,2,5-thiadiazolidin-2-yl)-2-naphthyl]propanamide]: the DC50 in experiment [1] and in experiment [2] was 50 to 200 nM in each case.

As for `O=C1CCC(N2Cc3c(OCc4cnn(CCC(=O)Nc5ccc6c(F)c(N7CC(=O)NS7(=O)=O)c(O)cc6c5)c4)cccc3C2=O)C(=O)N1` (stereo not shown) [Example 21, N-(6-(1,1-dioxido-4-oxo-1,2,5-thiadiazolidin-2-yl)-5-fluoro-7-hydroxynaphthalen-2-yl)-3-(4-(((2-(2,6-dioxopiperidin-3-yl)-1-oxoisoindolin-4-yl)oxy)methyl)-1H-pyrazol-1-yl)propanamide], the DC50 fell in the range of 200 to 1000 nM in experiment [1] and 50 to 200 nM in experiment [2].

Consider `Cn1c(=O)n(C2CCC(=O)NC2=O)c2ccc(C3CCN(CC(=O)Nc4ccc5c(F)c(N6CC(=O)NS6(=O)=O)c(O)cc5c4)CC3)cc21` (stereo not shown) [Example 22, N-(6-(1,1-dioxido-4-oxo-1,2,5-thiadiazolidin-2-yl)-5-fluoro-7-hydroxynaphthalen-2-yl)-2-(4-(1-(2,6-dioxopiperidin-3-yl)-3-methyl-2-oxo-2,3-dihydro-1H-benzo[d]imidazol-5-yl)piperidin-1-yl)acetamide], for which the values for the half-maximal degradation concentration (DC50) in experiment [1] and in experiment [2] were 50 to 200 nM and less than 10 nM, respectively.

In the case of `O=C1CCC(n2c(=O)oc3cc(C4CCN(CC(=O)Nc5ccc6c(F)c(N7CC(=O)NS7(=O)=O)c(O)cc6c5)CC4)ccc32)C(=O)N1` (stereo not shown) [Example 23, 2-[4-[3-(2,6-dioxo-3-piperidyl)-2-oxo-1,3-benzoxazol-6-yl]-1-piperidyl]-N-[5-fluoro-7-hydroxy-6-(1,1,4-trioxo-1,2,5-thiadiazolidin-2-yl)-2-naphthyl]acetamide], the results for the DC50 in experiment [1] and in experiment [2] were 50 to 200 nM and 10 to 50 nM, respectively.

`CC(C)n1c(=O)n(C2CCC(=O)NC2=O)c2ccc(C3CCN(CC(=O)Nc4ccc5c(F)c(N6CC(=O)NS6(=O)=O)c(O)cc5c4)CC3)cc21` (stereo not shown) [Example 24, 2-[4-[1-(2,6-dioxo-3-piperidyl)-3-isopropyl-2-oxo-benzimidazol-5-yl]-1-piperidyl]-N-[5-fluoro-7-hydroxy-6-(1,1,4-trioxo-1,2,5-thiadiazolidin-2-yl)-2-naphthyl]acetamide]: the DC50 in experiment [1] and in experiment [2] was 50 to 200 nM throughout.

`Cn1c(=O)n(C2CCC(=O)NC2=O)c2cccc(C3CCN(CC(=O)Nc4ccc5c(F)c(N6CC(=O)NS6(=O)=O)c(O)cc5c4)CC3)c21` (stereo not shown) [Example 25, 2-[4-[1-(2,6-dioxo-3-piperidyl)-3-methyl-2-oxo-benzimidazol-4-yl]-1-piperidyl]-N-[5-fluoro-7-hydroxy-6-(1,1,4-trioxo-1,2,5-thiadiazolidin-2-yl)-2-naphthyl]acetamide]: the results for the DC50 in experiment [1] and in experiment [2] were no less than 1000 nM and 200 to 1000 nM, respectively.

Consider `O=C1CCC(N2C(=O)c3cccc4c(C5CCN(CC(=O)Nc6ccc7c(F)c(N8CC(=O)NS8(=O)=O)c(O)cc7c6)CC5)ccc2c34)C(=O)N1` (stereo not shown) [Example 26, 2-[4-[1-(2,6-dioxo-3-piperidyl)-2-oxo-benzo[cd]indol-6-yl]-1-piperidyl]-N-[5-fluoro-7-hydroxy-6-(1,1,4-trioxo-1,2,5-thiadiazolidin-2-yl)-2-naphthyl]acetamide], for which the DC50 in experiment [1] and in experiment [2] was 50 to 200 nM in each case.

Regarding `Cn1c(=O)n(C2CCC(=O)NC2=O)c2ccc(NC3CN(CC(=O)Nc4ccc5c(F)c(N6CC(=O)NS6(=O)=O)c(O)cc5c4)C3)cc21` (stereo not shown) [Example 27, 2-[3-[[1-(2,6-dioxo-3-piperidyl)-3-methyl-2-oxo-benzimidazol-5-yl]amino]azetidin-1-yl]-N-[5-fluoro-7-hydroxy-6-(1,1,4-trioxo-1,2,5-thiadiazolidin-2-yl)-2-naphthyl]acetamide], the DC50 in experiment [1] was 200 to 1000 nM; in experiment [2] it was 10 to 50 nM.

In general, DC50 refers to the concentration at which degradation of the target reaches its halfway point. A low value points to a more potent degrader.
